According to US5919781A, “Use of NK-1 receptor antogonists for treating substance use disorders” (Merck Sharp & Dohme Ltd., priority 1996, dated 1999):
Like-named read-outs stand apart in the source and are kept apart here.

What was measured:
NK-1 receptor = biological target: T1, NK-1 receptor (Meriones unguiculatus, UniProt Q5DUB1); assay: Gerbil foot-tapping (Assay 2), inhibition of foot tapping induced by central infusion of NK-1 receptor agonist GR73632; format: in vivo, Mongolian gerbils; settings: iv
T1 construct: male or female Mongolian gerbils (35-70 g) are anaesthetised; from tissue; host or cells: brain of the living Mongolian gerbil (in vivo, agonist infused intracerebroventricularly)
From the text: ASSAY 2: Gerbil Foot-Tapping
CNS-penetrant NK-1 receptor antagonists for use in the present invention can be identified by their ability to inhibit foot tapping in gerbils induced by anxiogenic agents (such as pentagastrin) or central infusion of NK-1 receptor agonists such as GR73632, or caused by aversive stimulation such as foot shock or single housing, based on the method of Rupniak & Williams, Eur. J. Pharmacol., 1994, 265, 179.
Briefly, male or female Mongolian gerbils (35-70 g) are anaesthetised by inhalation of an isoflurane/oxygen mixture to permit exposure of the jugular vein in order to permit administration of test compounds or vehicle in an injection volume of 5 ml/kg i.v. Alternatively, test compounds may be administered orally or by subcutaneous or intraperitoneal routes. A skin incision is then made in the midline of the scalp to expose the skull. […]

[1] = test system: cisplatin-induced emesis in ferrets; assay: Ferret emesis (Assay 3), inhibition of cisplatin-induced emesis; format: in vivo; settings: Mustela putorius, po, 60 minutes before cisplatin 10 mg/kg i.v.; 4 hours observation; read-out: ferret emesis: ID90
Method: ASSAY 3: Ferret Emesis […] Ten minutes later they are fed with approximately 100 g of tinned cat food. At 60 minutes following oral dosing, cisplatin (10 mg/kg) is given i.v. via a jugular vein catheter inserted under a brief period of halothane anaesthesia. The catheter is then removed, the jugular vein ligated and the skin incision closed. The ferrets recover rapidly from the anaesthetic and are mobile within 10-20 minutes. The animals are observed continuously during recovery from the anaesthetic and for 4 hours following the cisplatin injection. The numbers of retches and vomits occurring during the 4 hours after cisplatin administration are recorded by trained observers.

[2] = test system: naloxone-precipitated withdrawal signs in rats; settings: central (i.c.v.) injection; rats receiving morphine for five days; Maldonado et al, 1993; cited from earlier work
[3] = test system: morphine withdrawal response in guinea-pigs; settings: systemic administration, only high doses active, Chahl & Johnston, 1992; cited from earlier work

T1 sequence (Q5DUB1 whole entry, the tested form may be a part): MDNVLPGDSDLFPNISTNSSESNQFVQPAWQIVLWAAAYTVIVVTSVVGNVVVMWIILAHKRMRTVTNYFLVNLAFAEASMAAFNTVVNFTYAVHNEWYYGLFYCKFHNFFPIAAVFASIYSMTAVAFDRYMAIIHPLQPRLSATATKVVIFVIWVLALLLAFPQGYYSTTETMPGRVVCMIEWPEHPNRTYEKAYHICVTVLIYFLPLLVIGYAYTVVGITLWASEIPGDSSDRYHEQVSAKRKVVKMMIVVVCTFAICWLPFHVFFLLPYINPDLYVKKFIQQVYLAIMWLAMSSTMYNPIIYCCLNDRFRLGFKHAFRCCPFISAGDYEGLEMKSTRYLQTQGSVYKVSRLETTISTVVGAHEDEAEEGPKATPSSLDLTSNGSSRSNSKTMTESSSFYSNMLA

C[C@@H](O[C@H]1OCCN(Cc2n[nH]c(=O)[nH]2)[C@H]1c1ccc(F)cc1)c1cc(C(F)(F)F)cc(C(F)(F)F)c1 [2-(R)-(1-(R)-(3,5-bis(trifluoromethyl)phenyl)ethoxy)-3-(S)-(4-fluorophenyl)-4-(3-(5-oxo-1H,4H-1,2,4-triazolo)methyl)morpholine]
ED50 (NK-1 receptor; 5 min, i.v., 5 mins., administered immediately prior to GR73632 challenge, read-out: gerbil foot-tapping (5 mins.): ID50): 0.36 mg/kg
ED50 (NK-1 receptor; 24 hours prior to central NK1 agonist challenge, read-out: gerbil foot-tapping (24 hrs.): ID50): 0.33 mg/kg
ED90 [1]: < 3 mg/kg

COc1ccccc1CC(=N)N1CC2C(=O)CCC(c3ccccc3)(c3ccccc3)C2C1 (centres unmarked) [RP67580]
attenuation of naloxone-precipitated withdrawal signs [2]: could attenuate naloxone-precipitated withdrawal signs

COc1ccccc1CNC1C2CCN(CC2)C1C(c1ccccc1)c1ccccc1 (centres unmarked) [CP-96,345]
doses active in blocking the withdrawal response [3]: 20 mg/kg
